Patent publication US20240294464A1, “SYNTHESIS OF RESTRAINED COMPLEXING AGENTS” (Genentech, Inc., priority 2021, published 2024)

Experiment: stability of compound 1 in prep-HPLC fractions
Format: physicochemical
Conditions: prep-HPLC fractions (0.01% TFA aqueous solution / acetonitrile); needs to freeze immediately for lyophilization
Source text: The crude compound 1 was purified by prep-HPLC (Mobile phase A: 0.01% TFA aqueous solution (v/v); Mobile phase B: Acetonitrile) and the purified product was lyophilized to give compound 1 with 98 A % HPLC purity as a white solid in 51% yield over two steps. (Note: The compound 1 in prep-HPLC fractions is not stable, and it needs to freeze immediately for lyophilization. The residual TFA in solid is 0.1 equiv to E)

O=C(O)CN(CC(=O)O)[C@@H]1CCCC[C@H]1N(CC(=O)O)Cc1ccc(CC(=O)Oc2c(F)c(F)cc(F)c2F)cc1 [compound 1, 2,2′-(((1R,2R)-2-((carboxymethyl)(4-(2-oxo-2-(2,3,5,6-tetrafluorophenoxy)ethyl)benzyl)amino)cyclohexyl)azanediyl)diacetic acid]
stability in prep-HPLC fractions: not stable
